The NIST ThermoML archive (doi:10.1021/acs.jced.5b00805)
Numbers after ± are expanded uncertainties.

Columns and labels:
[1] = wn = mass fraction of the nth substance listed; conditions: 100 kPa, Liquid, Vibrating tube method
[2] = refractive index (Na D-line) (dimensionless); wn = mass fraction of the nth substance listed; conditions: 100 kPa, Liquid, Standard Abbe refractometry

mass density ([1]; 288.15 K, w1 = 0.2601) | mass density ([1]; 308.15 K, w1 = 0.2537) | refractive index ([2]; 288.15 K, w1 = 0.2601) | refractive index ([2]; 308.15 K, w1 = 0.2537) | mass density ([1]; 288.15 K, w1 = 0.4413) | mass density ([1]; 308.15 K, w1 = 0.4664) | refractive index ([2]; 288.15 K, w1 = 0.4413) | refractive index ([2]; 308.15 K, w1 = 0.4664) | SMILES
1236.43 ± 1 kg/m3 | 1226.22 ± 1 kg/m3 | 1.3845 ± 0.0004 | 1.3738 ± 0.0004 | – | – | – | – | O=S(=O)([O-])[O-].[Li+].[Li+] [lithium sulfate] + O
– | – | – | – | 1287.19 ± 1.1 kg/m3 | 1301.11 ± 1.1 kg/m3 | 1.4394 ± 0.0004 | 1.4365 ± 0.0004 | [Cl-].[Li+] [lithium chloride] + O
